Test results from patent US20230131501A1, “THERAPEUTIC USES OF INHIBITORS OF THE RNA-BINDING PROTEIN HuR” (University of Kansas, priority 2020, published 2023).
pIC50: −log10 of the molar value.

Experiments:
HCT116 β/w = experiment: Cytotoxicity assay (WST-8); type: cell-based; conditions: Homo sapiens, HCT-116, 96 h incubation
Protocol: (§1) Cells were seeded in 96-well culture plates (5,000 cells/well) and treated with titrated compounds in triplicate. After 96 h incubation, cell growth medium was removed and proliferation reagent WST-8 (Sigma) was added to each well and incubated at 37° C. for 1-3 h. Absorbance was then measured with a plate reader at 450 nm with correction at 650 nm. The results were expressed as the percentage of absorbance of treated wells versus that of vehicle control.

MIAPaCa-2 = experiment: Cytotoxicity assay (WST-8); type: cell-based; conditions: Homo sapiens, MIA PaCa-2, 96 h incubation
Protocol: as §1

[1] = system: panel of cancer cell lines; experiment: Cytotoxicity assay, expanded panel of cell lines; type: cell-based
Protocol: as §1, with “The cytotoxicity of the tested compounds in several cancer cell lines (HCT116 β/w, MIAPaCa-2, and MDA-MB-231) was determined by a cytotoxicity assay, where the results are provided in Table 1. Cells” for “Cells”, “control. IC50, the drug concentration causing 50% growth inhibition, was calculated via sigmoid curve fitting using GraphPad Prism 5.0.” for “control.”
The assay was then utilized to assess cytotoxicity of KH-3 against an expanded panel of cell lines (including normal cell line WI-38), where FIGS. 4A-4C provide the results.

BxPC-3 cells = experiment: MTT cell viability; type: cell-based; conditions: Homo sapiens; BxPC-3, 48 hours
Protocol: (§2) Pancreatic cancer cell lines were obtained from the American Type Culture Collection (Manassas, Va.). hTERT-HPNE cells (immortalized human pancreatic ductal epithelial cells) were donated by Dr. Anant at the University of Kansas Medical Center. MTT assay was used for cell viability detection, with starting cell number in 96-well plate of 3000/well (for 72 h treatment) or 5000/well (for 48 h treatment).
(§3) Pancreatic cancer cell lines with different endogenous HuR expression levels were treated with serial concentrations of KH-3 for 48 hours. KH-3 induced cytotoxicity in pancreatic cancer cells, with the sensitivity correlated to endogenous HuR protein levels (FIG. 30). MIA PaCa2 cells have the highest HuR protein abundance among the tested cell lines and were the most sensitive to HuR treatment (IC50=5 μM). […] BxPC-3 cells, another human pancreatic cancer cell line, have HuR expression level in the middle, and the IC50 of KH-3 was in the middle (10 μM). A non-cancerous human pancreatic ductal epithelial cell line (hTERT-HPNE) was tested under the same conditions. hTERT-HPEN cells have the lowest abundance of HuR protein compared to the cancer cells, and the cytotoxicity of KH-3 to these cells were minimal (IC50>>40 μM). There is an inverse correlation in the tested cell lines between the HuR expression levels and the sensitivity to KH-3 treatment (FIG. 30) (R=−0.71 by Pearson Tests).

MIA PaCa2 cells = experiment: MTT cell viability; type: cell-based; conditions: Homo sapiens, MIA PaCa-2; MIA PaCa2, 48 hours
Protocol: as §2, §3

PANC-1 cells = experiment: MTT cell viability; type: cell-based; conditions: Homo sapiens; PANC-1, 48 hours
Protocol: as §2, §3

[2] = system: PANC-1-Luc orthotopic pancreatic xenografts; experiment: Orthotopic pancreatic tumor model (PANC-1-Luc); type: in vivo, nude mice
Protocol: All animal procedures were approved by the Institutional Animal Care and Use Committee at the University of Kansas Medical Center under the protocol #2015-2247. Dose of KH-3 was pre-determined by a pilot experiment to be 100 mg/kg body weight, intraperitoneal injection (IP), three times weekly. All treatment in this pancreatic cancer section of the present disclosure concerning KH-3 used this dose regimen.
An orthotopic pancreatic tumor model was used to determine treatment effects of KH-3. Luciferase-expressing PANC-1 cells (PANC-1-Luc, multi-clones) were established by the Preclinical Proof of Concept Core Laboratory (University of Kansas Medical Center, Kansas City, Kans.). A small subcostal laparotomy was performed in female Ncr nu/nu mice to expose the pancreas, and 2×10^5 PANC-1-Luc cells in 50 μL PBS were injected into the tail of pancreas. […]
The in vivo tumor inhibitory effects of KH-3 were tested in a highly metastatic orthotopic model of pancreatic cancer. […] Tumor progression is monitored by weekly imaging using an IVIS Spectrum imaging system (Caliper Life Sciences). […] After 2 weeks, tumor development in the pancreas of the recipient mice was detected by imaging. […] The dose regimen of KH-3 was determined by a pilot dose-finding experiment to be 100 mg/kg, intraperitoneal injection (IP), three times (3×) weekly, which was the highest dose without showing toxicity. […]

## CC(C)(C)c1ccc(S(=O)(=O)Nc2ccc3sc(/C=C/C(=O)NO)cc3c2)cc1 [KH-3]
HCT116 β/w
  IC50: 3.6 µM
MIAPaCa-2
  IC50: 4.5 µM
[1]
  cytotoxicity across a panel of cancer cell lines: potent cytotoxicity
BxPC-3 cells
  pIC50: 5.00
MIA PaCa2 cells
  pIC50: 5.30
PANC-1 cells
  pIC50: 4.60
[2]; 100 mg/kg IP 3× weekly, 5 weeks, 1/10
  mice that developed metastasis (liver): 10%
[2]; pilot dose-finding experiment, IP, three times weekly
  highest dose without showing toxicity: 100 mg/kg
